Read-outs that look alike come from different tables or passages of the source.
How the values were obtained:
SNU499 = assay: Cellular EC50, additional cell lines (Table 6-B); assay type: cell-based; details: Homo sapiens, Liver, P-gp+
Protocol: (§1) All high-content cell assays were performed on an ArrayScan VTi HCS Reader (Cellomics). Tumor cell lines were treated with AMG 900, AZD1152, MK-0457, or PHA-739358 (concentration range varied based on potency). The cells were prepared for intracellular staining with an anti-p-histone H3 Ser^10 antibody as previously described (1). Detection was performed with an anti-rabbit IgG-alexa-568 antibody and DAPI. The cellular levels of p-histone H3 were analyzed using Target Activation V2 algorithm (Cellomics) to determine the percentage of positive cells. For the imaging assays, the concentration-response curves and corresponding IC50 and EC50 values were calculated using the percentage of cells affected versus the DMSO control.
(§2) Tumor cells were treated with AMG 900, AZD1152, MK-0457, or PHA-739358 (range concentration varied based on potency) for 24 hours and processed for cell-cycle analysis (DNA staining only) as previously described (1). Cells were analyzed on a LSRII flow cytometer using BD FACS Diva software. The concentration-response curves and corresponding EC50 values were calculated using the percentage of cells with ≧4N DNA content versus the DMSO control.

769P = assay: Cellular EC50, additional cell lines (Table 6-B); assay type: cell-based; details: Homo sapiens, Kidney, P-gp+
Protocol: as §1, §2

U226-B1 = assay: ≧4N DNA content assay (flow cytometry); assay type: cell-based, human; details: U226-B1, BCRP −, 24 hours
Protocol: as §2

RPMI8226 = assay: ≧4N DNA content assay (flow cytometry); assay type: cell-based, human
Protocol: as §2

HCT116 AZD1152-resistant [1] = assay: ≧4N DNA content assay (FIG. 6-A); assay type: cell-based; details: Homo sapiens, HCT-116; HCT116 AZD1152-resistant subline; 24 hours; read-out: cellular ≧4N DNA content EC50
Protocol: Tumor cell lines were obtained from the American Type Culture Collection (ATCC) unless otherwise specified. The MDA-MB-231-PTX and NCI-H460-PTX cell lines were established by growing the cells in the presence of increasing concentrations of paclitaxel over a period of 6 months. The HCT116 AZD1152-resistant cell line was established by growing the cells in the presence of AZD1152 at 80 nmol/L.
as §2
(§3) HCT116 cell lines were treated with increasing concentrations of AMG 900 or AZD1152 for 24 hours. Flow cytometry was used to assess the accumulation of cells with ≧4N DNA content expressed as a percentage of the DMSO-treated control (POC). The concentration-response curves and calculated EC50 values were determined from two independent experiments (bars, ±SD).

MCF-7 = assay: Cellular EC50, additional cell lines (Table 6-B); assay type: cell-based, human; details: MCF-7, Breast
Protocol: as §1, §2

HCT15 = assay: Cellular EC50, additional cell lines (Table 6-B); assay type: cell-based, human; details: P-gp+
Protocol: as §1, §2

HCT116 parental = assay: ≧4N DNA content assay (FIG. 6-A); assay type: cell-based; details: Homo sapiens, HCT-116, 24 hours, read-out: cellular ≧4N DNA content EC50
Protocol: as §2, §3

NCI-H460 parental = assay: p-histone H3 fluorescence-based cell imaging assay; set-up: species or system human; details: P-gp −
Protocol: as §1

[2] = system: NCI-H460 PTX paclitaxel resistant; assay: p-histone H3 fluorescence-based cell imaging assay; set-up: species or system human; details: for EC50: NCI-H460-PTX*, Lung, P-gp+, read-out: Cellular EC50; for IC50: NCI-H460 PTX paclitaxel resistant, P-gp +
Protocol: as §1

[3] = system: MES-SA-Dx5 doxorubicin resistant; assay: p-histone H3 fluorescence-based cell imaging assay; set-up: species or system human; details: for EC50: MES-SA Dx5*, Uterine, P-gp+, read-out: Cellular EC50; for IC50: MES-SA-Dx5 doxorubicin resistant, P-gp +
Protocol: as §1

MES-SA parental = assay: p-histone H3 fluorescence-based cell imaging assay; set-up: species or system human; details: P-gp −
Protocol: as §1

MDA-MB-231 parental = assay: p-histone H3 fluorescence-based cell imaging assay; set-up: species or system human; details: P-gp −
Protocol: as §1

[4] = system: MDA-MB-231 PTX paclitaxel resistant; assay: p-histone H3 fluorescence-based cell imaging assay; set-up: species or system human; details: for EC50: MDA-MB-231-PTX*, Breast, P-gp+, read-out: Cellular EC50; for IC50: MDA-MB-231 PTX paclitaxel resistant, P-gp +
Protocol: as §1

HCT116 AZD1152-resistant [5] = assay: Colony formation assay (FIG. 6-B); assay type: cell-based, human; details: HCT116 variant subline, at 50 nmol/L
Protocol: Tumor cell lines were obtained from the American Type Culture Collection (ATCC) unless otherwise specified. The MDA-MB-231-PTX and NCI-H460-PTX cell lines were established by growing the cells in the presence of increasing concentrations of paclitaxel over a period of 6 months. The HCT116 AZD1152-resistant cell line was established by growing the cells in the presence of AZD1152 at 80 nmol/L. Tumor cells were treated with AMG 900, paclitaxel or AZD1152 (0.5, 5, 50 nmol/L) for 48 hours, washed twice with complete media, and cells were re-plated at a density of 5000 cells per well in drug-free complete media. Cells were grown until the DMSO control wells were confluent. Cells were stained with crystal violet dye (Sigma), washed with distilled water, and imaged using a digital scanner (Hewlett-Packard). Colony formation assay was performed with HCT116 cell lines (parental and AZD1152-resistant). Cells were treated with DMSO, AMG 900, AZD1152, or paclitaxel at the indicated concentrations for 48 hours and re-plated in complete media lacking the inhibitor. After the DMSO-treated cells reached confluence, the cells were stained with crystal violet and imaged (duplicate wells).

[6] = Homo sapiens, RPMI-8226, RPMI8226, BCRP +, 24 hours, read-out: ≧4N DNA Content assay, EC50 value
[7] = Homo sapiens, RPMI-8226**, Multiple Myeloma, P-gp− and/or BCRP+, read-out: Cellular EC50

EC50 (SNU499) [nM]	EC50 (769P) [nM]	EC50 (U226-B1; Homo sapiens) [nM]	EC50 (RPMI8226; [6]) [nM]	EC50 (RPMI8226; [7]) [nM]	EC50 (MCF-7; Homo sapiens, MCF7) [nM]	EC50 (HCT15; Homo sapiens, HCT-15, Colon) [nM]	EC50 ([2]; Homo sapiens) [nM]	IC50 ([2]; Homo sapiens) [nM]	EC50 ([3]; Homo sapiens) [nM]	IC50 ([3]; Homo sapiens) [nM]	EC50 ([4]; Homo sapiens) [nM]	IC50 ([4]; Homo sapiens) [nM]	Compound	IC50 (NCI-H460 parental; Homo sapiens) [nM]	IC50 (MES-SA parental; Homo sapiens) [nM]	IC50 (MDA-MB-231 parental; Homo sapiens) [nM]	also measured
> 1250	703	12	865	865	11	> 625	> 500	> 500	> 500	> 500	> 500	> 500	CCN(CCCOc1ccc2c(Nc3cc(CC(=O)Nc4cccc(F)c4)n[nH]3)ncnc2c1)CCOP(=O)(O)O [AZD1152]	131	51	16	EC50 (HCT116 AZD1152-resistant [1]): 672 nM; EC50 (HCT116 parental): 34 nM; sensitivity in colony formation (HCT116 AZD1152-resistant [5]): insensitive
													Cc1cc(Nc2cc(N3CCN(C)CC3)nc(Sc3ccc(NC(=O)C4CC4)cc3)n2)n[nH]1 [MK-0457]				EC50 (U226-B1): 46 nM; EC50 (RPMI8226; RPMI8226, BCRP +, 24 hours, read-out: ≧4N DNA Content assay, EC50 value): 162 nM; EC50 (RPMI8226; RPMI-8226**, Multiple Myeloma, P-gp− and/or BCRP+, read-out: Cellular EC50): 162 nM; EC50 (MCF-7): 27 nM; EC50 (HCT15; Colon): 908 nM; IC50 (NCI-H460 parental): 123 nM; EC50 [2]: 468 nM; IC50 [2]: 468 nM; EC50 [3]: > 1250 nM; IC50 [3]: > 1250 nM; IC50 (MES-SA parental): 51 nM; IC50 (MDA-MB-231 parental): 43 nM; EC50 [4]: 277 nM; IC50 [4]: 277 nM
> 1250	> 1250	67	> 1250	> 1250	68	> 1250	> 1250	> 1250	> 1250	> 1250	> 1250	> 1250	CO[C@@H](C(=O)N1Cc2n[nH]c(NC(=O)c3ccc(N4CCN(C)CC4)cc3)c2C1)c1ccccc1 [PHA-739358]	510	113	49	

Reference: patent US20120028917A1, “Use Of N-(4-((3-(2-Amino-4-Pyrimidinyl)-2-Pyridinyl)Oxy)Phenyl)-4-(4-Methyl-2-Thienyl)-1-Phthalazinamine In The Treatment Of Antimitotic Agent Resistant Cancer” (Amgen Inc., priority 2009, published 2012)
